Read-outs that look alike come from different tables or passages of the source.
Experiments:
[1] = system: MDR1-MDCK cell monolayers; conditions: dog, MDCK-MDR1, 120 min, 5 μM, pH 7.4
MDR1 [2] = test: in vitro; conditions: dog, MDCK-MDR1, pH 7.4
MDR1 (P-gp) [3] = test: in vitro; conditions: dog, MDCK-MDR1, pH 7.4
[4] = system: SMN protein in spinal muscular atrophy (SMA) patient fibroblasts (GM03813, Coriell); test: SMN protein assay, Mesoscale Discovery (MSD); type: cell-based, human; conditions: for EC50: read-out: SMN2 protein EC50
How it was run: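 Absolute SMN levels were quantified by MSD against an SMN protein standard curve (1 μg/ml to 19.5 pg/ml) run on each plate. Samples were lysates of GM03813 patient fibroblasts (7000 cells/well) treated 48 hours with compound doses from 2.5 μM down to 0.6 nM.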

[5] = system: mHTT protein in GM04724 (CAG 70/20) Huntington's disease patient lymphoblast cells; test: mHTT protein assay, 2B7-MW1 assay via Mesoscale Discovery (MSD); type: cell-based, human; conditions: for mHTT protein EC50: GM04724 Huntington's disease patient lymphoblasts; for EC50: GM04724 (CAG 70/20) Huntington's disease patient lymphoblasts
How it was run: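 Signal from the 2B7-MW1 antibody pair on MSD, rising with polyQ length and smaller HTT fragments, measured mHTT after 48 h compound exposure (0.6 nM–10 μM) in GM04724 cells. A parallel replicate plate gave CellTiter Glo viability.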

[6] = system: SMN FL and SMN Δ7 in spinal muscular atrophy (SMA) patient fibroblasts (GM03813, Coriell); test: Quantitative splicing assay (SMN), qPCR; type: cell-based, human; conditions: Homo sapiens, Fibroblast, 24 h, SMA patient fibroblasts (GM03813), 24 h; read-out: SMN2 Splicing FL EC50
Protocol: Spinal muscular atrophy (SMA) patient fibroblasts (GM03813, Coriell) are plated in 96-well plates at 50,000 cells/well. […] Treated cells are lysed and cDNA synthesized using the Fast Advanced Cells-to-Ct kit (Thermofisher A35378) according to the manufacturer's instructions. 2 μL of each cDNA are used in qPCR reactions. […] Reactions are run in a Quant Studio 6 qPCR instrument with default settings.

[7] = Quantitative splicing assay (HTT), qPCR; type: cell-based, human; conditions: Homo sapiens, GM04724, 24 h, GM04724 lymphoblasts, read-out: HTT Splicing: E49-50 EC50
How it was run: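 TaqMan qPCR on cell-lysate cDNA quantifies cryptic-exon inclusion from HTT intron 49. Lymphoblasts plated at 50,000 cells/well had received compound for 24 h, 0.15 nM-2.5 uM range, 0.1% DMSO.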

[8] = system: MDR1-MDCK cell monolayers; test: Blood-brain-barrier (BBB) penetration potential via MDCK-MDR1 permeability assay
MDR1 [9] = test: as above; conditions: dog, MDCK-MDR1, pH 7.4, MDCK-MDR1: Efflux
MDR1 (P-gp) [10] = test: as above; conditions: dog; for Papp A→B at 120 min, 5 μM: MDCK-MDR1, pH 7.4, MDCK-MDR1: Papp A-B; for Papp B→A at 120 min, 5 μM: MDCK-MDR1, pH 7.4, MDCK-MDR1: Papp B-A
[11] = SMA patient fibroblasts (GM03813), 48 hours
[12] = SMA patient fibroblasts GM03813, 48 hours, MSD

| Compound | MDCK-MDR1: % Recov A-B [1] [%] | MDCK-MDR1: % Recov B-A [1] [%] | efflux ratio at 120 min, 5 μM (MDR1 [2]) | Papp A→B at 120 min, 5 μM (MDR1 (P-gp) [3]) [×10⁻⁶ cm/s] | Papp B→A at 120 min, 5 μM (MDR1 (P-gp) [3]) [×10⁻⁶ cm/s] | SMN2 protein EC50 [4, 11] | mHTT protein EC50 [5] | SMN2 protein EC50 [4, 12] | EC50 [6] [nM] | EC50 [7] [nM] | EC50 [5] [nM] | MDCK-MDR1: % Recov A-B [8] [%] | MDCK-MDR1: % Recov B-A [8] [%] | efflux ratio at 120 min, 5 μM (MDR1 [9]) | Papp A→B at 120 min, 5 μM (MDR1 (P-gp) [10]) [×10⁻⁶ cm/s] | Papp B→A at 120 min, 5 μM (MDR1 (P-gp) [10]) [×10⁻⁶ cm/s] | EC50 [4, 11] [nM] |
| --- | --- | --- | --- | --- | --- | --- | --- | --- | --- | --- | --- | --- | --- | --- | --- | --- | --- |
| CN(c1ccc(-c2cnc(-c3cnn(C)c3)nc2O)nn1)[C@H]1C[C@@H]2CC[C@@H](N2)[C@H]1F (racemic) [Compound 122, rac-5-(6-(((1R,2R,3S,5S)-2-fluoro-8-azabicyclo[3.2.1]octan-3-yl)(methyl)amino)pyridazin-3-yl)-2-(1-methyl-1H-pyrazol-4-yl)pyrimidin-4-ol] | 86 | 98 | > 3 | < 0.2 | 0.6 | E (501 ≤ E ≤ 10.000) |  |  |  |  |  |  |  |  |  |  |  |
| CN(c1ccc(-c2ccc(C3CC3)cc2O)nn1)[C@@H]1C[C@H]2CC[C@H](N2)[C@@H]1F (single isomer, unassigned) [Compound 31A] | 45 | 66 | 4 | 8.77 | 31.3 |  | E (501 ≤ E ≤ 10.000) | E (501 ≤ E ≤ 10.000) |  |  |  |  |  |  |  |  |  |
| CN(c1ccc(-c2ccc(C3CC3)cc2O)nn1)[C@H]1C[C@@H]2CC[C@@H](N2)[C@H]1F (single isomer, unassigned) [Compound 31B] | 43 | 74 | 4 | 7.08 | 27 |  | E (501 ≤ E ≤ 10.000) | E (501 ≤ E ≤ 10.000) |  |  |  |  |  |  |  |  |  |
| CC(=O)Nc1ccc(-c2ccc(N(C)[C@@H]3C[C@H]4CC[C@H](N4)[C@@H]3F)nn2)c(O)c1 (single isomer, unassigned) [Compound 32A] | 90 | 98 | 59 | 0.34 | 20.2 |  | E (501 ≤ E ≤ 10.000) | E (501 ≤ E ≤ 10.000) |  |  |  |  |  |  |  |  |  |
| CC(=O)Nc1ccc(-c2ccc(N(C)[C@H]3C[C@@H]4CC[C@@H](N4)[C@H]3F)nn2)c(O)c1 (single isomer, unassigned) [Compound 32B] | 95 | 95 | 78 | 0.27 | 21.2 |  | E (501 ≤ E ≤ 10.000) | E (501 ≤ E ≤ 10.000) |  |  |  |  |  |  |  |  |  |
| Cc1nc2cc(-c3ccc(N(C)[C@@H]4C[C@H]5CC[C@H](N5)[C@@H]4F)nn3)c(O)cc2s1 [Compound 115A, 5-(6-(((1S,2S,3R,5R)-2-fluoro-8-azabicyclo[3.2.1]octan-3-yl)(methyl)amino)pyridazin-3-yl)-2-methylbenzo[d]thiazol-6-ol] |  |  |  |  |  |  |  |  | 16 to 50 | 16 to 50 | 0.01 to 15 | 93 | 78 | 8 | 4.7 | 39.3 | 0.01 to 15 |
| Cc1nc2cc(-c3ccc(N(C)[C@H]4C[C@@H]5CC[C@@H](N5)[C@H]4F)nn3)c(O)cc2s1 [Compound 115B, 5-(6-(((IR,2R,3S,5S)-2-fluoro-8-azabicyclo[3.2.1]octan-3-yl)(methyl)amino)pyridazin-3-yl)-2-methylbenzo[d]thiazol-6-ol] |  |  |  |  |  |  |  |  | 0.01 to 15 | 0.01 to 15 | 0.01 to 15 | 71 | 88 | 7 | 6.4 | 42.6 | 0.01 to 15 |
| Cc1nc2cc(O)c(-c3ccc(N(C)[C@@H]4C[C@H]5CC[C@H](N5)[C@@H]4F)nn3)cc2s1 [Compound 116A, 6-(6-(((1S,2S,3R,5R)-2-fluoro-8-azabicyclo[3.2.1]octan-3-yl)(methyl)amino)pyridazin-3-yl)-2-methylbenzo[d]thiazol-5-ol] |  |  |  |  |  |  |  |  | 51 to 100 | 16 to 50 | 0.01 to 15 | 86 | 88 | 10 | 4.39 | 42.9 | 0.01 to 15 |
| Cc1nc2cc(O)c(-c3ccc(N(C)[C@H]4C[C@@H]5CC[C@@H](N5)[C@H]4F)nn3)cc2s1 [Compound 116B, 6-(6-(((1R,2R,3S,5S)-2-fluoro-8-azabicyclo[3.2.1]octan-3-yl)(methyl)amino)pyridazin-3-yl)-2-methylbenzo[d]thiazol-5-ol] |  |  |  |  |  |  |  |  | 0.01 to 15 | 0.01 to 15 | 0.01 to 15 | 77 | 80 | 7 | 6.29 | 43.2 | 0.01 to 15 |
| Cc1nc2cc(O)c(-c3ccc(N(C)[C@@H]4C[C@H]5CC[C@H](N5)[C@@H]4F)nn3)cc2o1 [Compound 117A, 6-(6-(((1S,2S,3R,5R)-2-fluoro-8-azabicyclo[3.2.1]octan-3-yl)(methyl)amino)pyridazin-3-yl)-2-methylbenzo[d]oxazol-5-ol] |  |  |  |  |  |  |  |  | 101 to 500 | 51 to 100 | 16 to 50 | 84 | 97 | 6 | 6.87 | 39.9 | 16 to 50 |
| Cc1nc2cc(O)c(-c3ccc(N(C)[C@H]4C[C@@H]5CC[C@@H](N5)[C@H]4F)nn3)cc2o1 [Compound 117B, 6-(6-(((1R,2R,3S,5S)-2-fluoro-8-azabicyclo[3.2.1]octan-3-yl)(methyl)amino)pyridazin-3-yl)-2-methylbenzo[d]oxazol-5-ol] |  |  |  |  |  |  |  |  | 16 to 50 | 16 to 50 | 0.01 to 15 | 90 | 86 | 10 | 4.32 | 45 | 0.01 to 15 |
| CN(c1ccc(-c2cc3cnccc3cc2O)nn1)[C@H]1C[C@@H]2CCC[C@@H](N2)[C@H]1F [Compound 121B, 7-(6-(((1R,2R,3S,5S)-2-fluoro-9-azabicyclo[3.3.1]nonan-3-yl)(methyl)amino)pyridazin-3-yl)isoquinolin-6-ol] |  |  |  |  |  |  |  |  | 0.01 to 15 | 0.01 to 15 | 0.01 to 15 | 83 | 111 | 9 | 4.47 | 39.5 | 0.01 to 15 |

— patent US12509460B2 (Skyhawk Therapeutics, Inc., priority 2019, dated 2025)
